According to patent publication US6737246B2, “Method for detecting protein inhibitors and ligands of medical value” (Aventis Pharma Deutschland, GmbH, priority 2000, dated 2004):

Target: T1, MMP-13 (Homo sapiens, UniProt P45452)
T1 construct: purchased Invitek GmbH, Berlin, Germany HM 13110010
Test: MMP-13 marker substrate conversion (fluorescence) in the presence of collagen II and test substance
Type: biochemical
Conditions: control without test substance 49%
Description: MMP-13 was obtained as a commercial product (Cat. No. HM 13110010) from Invitek GmbH, Berlin, Germany, activated according to the manufacturer's instruction, and diluted to 10 μg/10 ml with TCB buffer. TCB buffer was prepared by dissolving 10 mM tris(hydroxymethyl)aminomethane (Sigma-Aldrich Chemie GmbH, Deisenhofen, Germany) in water and adjusting the pH to 7.5 with HCl. 100 mM CaCl2×2H2O (Merck KGaA, Darmstadt, Germany) and 0.05% of Brij 35 solution, 30% (w/v) (Sigma-Aldrich Chemie GmbH, Deisenhofen, Deutschland), are added to said solution.
A solution of 10 mmol/l (7-methoxycoumarin-4-yl )acetyl-Pro-Leu-Gly-Leu-(3-[2,4-dinitrophenyl]-L-2,3-diaminopropionyl)-Ala-Arg-[…] (SEQ ID NO: 1). (Bachem Biochemica GmbH, Heidelberg, Germany) in dimethyl sulfoxide (DMSO) (Riedel-de Haen AG, Seelze, Germany) was diluted 1:40 (v/v) with water.
10 mg of human […] (Biocon, Potsdam, Germany) were dissolved in 2400 μl of 10 mmol/l acetic acid (72 hours at 4° C.), and then 1300 μl of a sodium bicarbonate solution (250 mmol/l) CaCl2×2H2O (Merck KGaA, Darmstadt, Germany) were added dropwise.
Test substance (suspected inhibitor or ligand), typically dissolved in water at an appropriate concentration relative to the amount of enzyme used.
The components A) (25 μl), B) (5 μl), C) (10 μl) and D) (10 μl) were mixed in a total volume of 50 μl, and fluorescence was measured in a commercial spectrofluorimeter after 15 minutes (excitation at 330 nm, emission at 390 nm, Spectrafluor plus, Tecan Deutschland GmbH, Crailsheim, Germany).
Enzyme and inhibitor were preincubated at room temperature for 15 min. The reaction was started by adding 5 μl of marker substrate solution (component B at 25 μM).
The fluorescence in example 1 was set at 100%, and the measured values of the other examples are based on this value.

[1] = 200 μmol/l test substance, components A (MMP-13), B (marker substrate), C (collagen II) present

| Measured value (fluorescence, example 1 set at 100%) [1] | Measured value (fluorescence, example 1 set at 100%) (200 μmol/l test substance, components A (MMP-13), B (marker substrate), C (collagen II) present, listed as (I)) | Measured value (fluorescence, example 1 set at 100%) (60 μg/well (60 μg/50 μl) test substance, components A, B, C present) | Molecule |
| --- | --- | --- | --- |
| 0% | – | – | C[C@H]1c2cccc(O)c2C(=O)C2=C(O)[C@]3(O)C(=O)C(C(N)=O)=C(O)[C@@H](N(C)C)[C@@H]3[C@@H](O)[C@@H]21 [doxycycline] |
| 59% | 59% | – | Fc1ccc(/C(=C\CCN2CCC(=C(c3ccccc3)c3ccccc3)CC2)c2ccccc2)cc1 [substance (I), 4-(diphenylmethylene)-1-[4-(p-fluorophenyl)-4-phenyl-3-butenyl]piperidine] |
| – | – | 73% | protamine sulfate |
